# Measured values published in PubChem BioAssay (NCI).
#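 Abbreviation: GI50, concentration required for 50% inhibition of growth. Definition used: TGI = concentration required for complete inhibition of growth.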
# Legend:
# Experiment in all cases: growth of human tumour cells (NCI), 384-well format
# SR leukemia = tested on: SR leukemia
# MDA-MB-435 melanoma = tested on: MDA-MB-435 melanoma
# RPMI-8226 leukemia = tested on: RPMI-8226 leukemia
# EKVX NSCLC = tested on: EKVX NSCLC
# SF-539 CNS = tested on: SF-539 CNS
# COLO 205 colon = tested on: COLO 205 colon
# NCI/ADR-RES ovarian = tested on: NCI/ADR-RES ovarian
# MDA-MB-231 breast = tested on: MDA-MB-231 breast
# SF-268 CNS = tested on: SF-268 CNS
# MALME-3M melanoma = tested on: MALME-3M melanoma
# HOP-62 NSCLC = tested on: HOP-62 NSCLC
# OVCAR-5 ovarian = tested on: OVCAR-5 ovarian
# CAKI-1 renal = tested on: CAKI-1 renal
# OVCAR-8 ovarian = tested on: OVCAR-8 ovarian
# MDA-MB-468 breast = tested on: MDA-MB-468 breast
# SK-MEL-5 melanoma = tested on: SK-MEL-5 melanoma
# OVCAR-4 ovarian = tested on: OVCAR-4 ovarian
# MOLT-4 leukemia = tested on: MOLT-4 leukemia
# CCRF-CEM leukemia = tested on: CCRF-CEM leukemia
# NCI-H322M lung = tested on: NCI-H322M lung
# SNB-75 CNS = tested on: SNB-75 CNS
# NCI-H522 lung = tested on: NCI-H522 lung
# SK-OV-3 ovarian = tested on: SK-OV-3 ovarian
# MCF7 breast = tested on: MCF7 breast
# U251 glioblastoma = tested on: U251 glioblastoma
# SNB-19 CNS = tested on: SNB-19 CNS
# HS 578T breast = tested on: HS 578T breast
# HOP-92 NSCLC = tested on: HOP-92 NSCLC
compound,measurement,setting,value
CC1(C)CC(O)CC(C)(C)N1O,GI50,SR leukemia,> 100 µM
same,TGI,SR leukemia,> 100 µM
same,GI50,MDA-MB-435 melanoma,> 100 µM
same,TGI,MDA-MB-435 melanoma,> 100 µM
same,GI50,RPMI-8226 leukemia,> 100 µM
same,TGI,RPMI-8226 leukemia,> 100 µM
same,GI50,EKVX NSCLC,> 100 µM
same,TGI,EKVX NSCLC,> 100 µM
same,GI50,SF-539 CNS,> 100 µM
same,TGI,SF-539 CNS,> 100 µM
same,GI50,COLO 205 colon,> 100 µM
same,TGI,COLO 205 colon,> 100 µM
same,GI50,NCI/ADR-RES ovarian,> 100 µM
same,TGI,NCI/ADR-RES ovarian,> 100 µM
same,GI50,MDA-MB-231 breast,> 100 µM
same,TGI,MDA-MB-231 breast,> 100 µM
same,GI50,SF-268 CNS,> 100 µM
same,TGI,SF-268 CNS,> 100 µM
same,GI50,MALME-3M melanoma,> 100 µM
same,TGI,MALME-3M melanoma,> 100 µM
same,GI50,HOP-62 NSCLC,> 100 µM
same,TGI,HOP-62 NSCLC,> 100 µM
same,GI50,OVCAR-5 ovarian,> 100 µM
same,TGI,OVCAR-5 ovarian,> 100 µM
same,GI50,CAKI-1 renal,> 100 µM
same,TGI,CAKI-1 renal,> 100 µM
same,GI50,OVCAR-8 ovarian,> 100 µM
same,TGI,OVCAR-8 ovarian,> 100 µM
same,GI50,MDA-MB-468 breast,29.8 µM
same,TGI,MDA-MB-468 breast,> 100 µM
same,GI50,SK-MEL-5 melanoma,> 100 µM
same,TGI,SK-MEL-5 melanoma,> 100 µM
same,GI50,OVCAR-4 ovarian,19.9 µM
same,TGI,OVCAR-4 ovarian,> 100 µM
same,GI50,MOLT-4 leukemia,44.5 µM
same,TGI,MOLT-4 leukemia,> 100 µM
same,GI50,CCRF-CEM leukemia,47.2 µM
same,TGI,CCRF-CEM leukemia,> 100 µM
same,GI50,NCI-H322M lung,> 100 µM
same,TGI,NCI-H322M lung,> 100 µM
same,GI50,SNB-75 CNS,> 100 µM
same,TGI,SNB-75 CNS,> 100 µM
same,GI50,NCI-H522 lung,> 100 µM
same,TGI,NCI-H522 lung,> 100 µM
same,GI50,SK-OV-3 ovarian,> 100 µM
same,TGI,SK-OV-3 ovarian,> 100 µM
same,GI50,MCF7 breast,> 100 µM
same,TGI,MCF7 breast,> 100 µM
same,GI50,U251 glioblastoma,> 100 µM
same,TGI,U251 glioblastoma,> 100 µM
same,GI50,SNB-19 CNS,> 100 µM
same,TGI,SNB-19 CNS,> 100 µM
same,GI50,HS 578T breast,> 100 µM
same,TGI,HS 578T breast,> 100 µM
same,GI50,HOP-92 NSCLC,> 100 µM
same,TGI,HOP-92 NSCLC,> 100 µM
